Patent EP0950398A2, “Use of esters as dispersants or solvents in sunscreens and solar protection pigments” (Henkel Kommanditgesellschaft auf Aktien, priority 1998, dated 1999)

Assay: UV absorption of 5 ppm Octylmethoxy Cinnamate dissolved in different oil bodies (absorption increase)
Type: physicochemical
Conditions: for Absorptionssteigerung: 5 ppm Octylmethoxy Cinnamate in the oil body, 1-cm cuvette, 308 nm, absorption in Mineralöl taken as 100 %
Description: Zur Bestimmung der Absorptionssteigerung wurden Lösungen von 5 ppm Octylmethoxy Cinnamate in verschiedenen Ölkörpern hergestellt und die UV-Absorption in einer 1-cm Küvette bei einer Wellenlänge von 308 nm bestimmt. Die Absorption in Mineralöl wurde dazu als 100 % angenommen und alle übrigen Absorptionen dazu ins Verhältnis gesetzt. Des weiteren wurden verschiedene UV-Filter (OT = Octyl Triazone; BMDBM = Butyl Methoxydibenzoylmethane; B3 = Benzophenone-3 und 4MBC = 4-Methylbenzyliden Camphor) in den Ölkörpern in der Wärme gelöst und die Löslichkeit bei 15°C bestimmt. Die Ergebnisse sind in Tabelle 1 zusammengefaßt. Tabelle 1

| Absorptionssteigerung [%] | UV-Absorption unterstützt (result in words, comparison of all tested oil bodies) | Compound |
| --- | --- | --- |
| 117 | am stärksten | CCCCOC(=O)CCCCC(=O)OCCCC [Dibutyl Adipate] |
| 105 | – | CCCCCCCCOCCCCCCCC [Dicaprylyl Ether, reference compound] |
